Experimental data published in US20210196782A1 (priority 2015, published 2021).
Entries after “also recorded” stand apart in the source; their conditions may differ.

Assays:
primary cortical neurons [1] = format: cell-based
primary cortical neurons [2] = format: cell-based; remark: listed apart in the source
primary cortical neurons [3] = format: cell-based; remark: listed apart in the source
[4] = system: mouse middle cerebral artery occlusion (MCAO) stroke model; conditions: in vivo
[5] = system: mouse middle cerebral artery occlusion (MCAO) stroke model; conditions: in vivo; remark: listed apart in the source
[6] = system: mouse middle cerebral artery occlusion (MCAO) stroke model; conditions: in vivo; remark: listed apart in the source
primary cortical neurons [7] = system: primary cortical neurons
primary cortical neurons [8] = system: primary cortical neurons; remark: listed apart in the source

C[C@@H](NC(=O)[C@@H](N)Cc1ccc(O)cc1)C(=O)NCC(=O)N[C@@H](Cc1ccccc1)C(=O)NNC(=O)[C@H](Cc1ccccc1)NC(=O)CNC(=O)[C@@H](C)NC(=O)[C@@H](N)Cc1ccc(O)cc1 [biphalin]
less LDH release (primary cortical neurons [1]): 30.5%
neuronal death (LDH), in words (primary cortical neurons [1]): significantly decreased neuronal cell death
less LDH release, NMDA (primary cortical neurons [2]): 18.4%
neuronal death (LDH), NMDA, in words (primary cortical neurons [2]): significantly decreased relative neuronal death
ROS production, in words (primary cortical neurons [3]): significantly decreased ROS production
less ROS production (primary cortical neurons [3]): 29.1%
edema formation, in words [4]: significantly decreased edema formation
infarct formation, in words [4]: significantly decreased; also recorded: significantly reduced infarct formation
reduction in edema formation [4]: 56.17%
reduction in infarct ratio [4]: 67.0%
neurological score improvement [5]: 25.5%
neurological score, in words [5]: improved neurological behavior
Horizontal Activity [6]: 760
No. of Movements [6]: 42
Rest Time [6]: 240 s
Stereotpy Counts [6]: 390
Total Distance (CM) [6]: 650 CM
Vertical Activity [6]: 28
locomotor parameters, in words [6]: statistically significantly improved all the locomotor parameters
neuronal survival (MTT), in words (primary cortical neurons [7]): significantly increased neuronal survival
more neuronal survival (MTT) (primary cortical neurons [7]; 3 h, 10 nM): 42.6%
neuronal survival (MTT), NMDA, in words (primary cortical neurons [8]): significantly improved relative neuronal survival
more neuronal survival (MTT), NMDA (primary cortical neurons [8]; 3 h): 28.7%

O=C1CC[C@@]2(O)[C@H]3Cc4ccc(O)c5c4[C@@]2(CCN3CC2CC2)[C@H]1O5 [NTX, naltrexone]
neuronal death (LDH), in words (primary cortical neurons [1]): No statistical significant difference
neuronal death (LDH), NMDA, in words (primary cortical neurons [2]): did not show any significant effect
ROS production, in words (primary cortical neurons [3]): did not show a significant decrease in ROS production
neurological score, in words [5]: did not improve any neurological score
neuronal survival (MTT), in words (primary cortical neurons [7]): No statistical significant difference
neuronal survival (MTT), NMDA, in words (primary cortical neurons [8]): did not show any significant effect
